Results from PMC10357944 (RSC Medicinal Chemistry, 2023).

Assays:
[1] = tested on: Leishmania (L.) infantum intracellular amastigotes; assay: Anti-L. (L.) infantum activity in vitro, intracellular amastigotes in peritoneal macrophages, infection index; format: cell-based; conditions: L. (L.) infantum intracellular amastigotes in BALB/c peritoneal macrophages, 96 h treatment, NA = inactive
Protocol: The synthesized compounds were evaluated for their anti-L. (L.) infantum activity on intracellular amastigotes following 96 h treatment, with standard drug miltefosine used as a control. […] Leishmania (L.) infantum (MHOM/BR/1972/LD) amastigotes were obtained by differential centrifugation from golden hamsters (Mesocricetus auratus) spleens with 60–70 days of infection and the number of parasites was determined by the Stauber method.[18] Murine conjunctive fibroblasts NCTC clone 929 (ATCC) were maintained in RPMI-1640 medium supplemented with 10% FBS at pH 7.2 and 37 °C in a humidified incubator with 5% CO2. Peritoneal macrophages were by obtained by washing the peritoneal cavity of BALB/c mice with RPMI-1640 medium supplemented with 10% FBS, pH 7.2 and maintained at 37 °C in a humidified incubator with 5% CO2. Peritoneal macrophages (1 × 10^5/well) were added in 16-well slide chambers (NUNC) and incubated overnight at 37 °C with 5% CO2. Subsequently, the cells were infected with L. (L.) infantum amastigotes (10 : 1 amastigotes/macrophage) for 24 h, treated with compounds serially diluted (6.25 to 50 μM) and incubated for 96 h at 37 °C with 5% CO2. Miltefosine was used as standard drug and untreated cells as a negative control. Slides were fixed with methanol, stained with Giemsa and observed under a light microscope.[19] […] The determination of CC50 and IC50 values was performed by sigmoid dose–response curves using the Graph Pad Prism 5 software. The samples were tested in duplicate and the assays were reproduced at least twice.

[2] = Mammalian toxicity in vitro, MTT colorimetric method; format: cell-based, Murine; conditions: mouse, NCTC clone 929 fibroblasts, pH 7.2, NCTC clone 929 cells, up to 200 μM
Protocol: The synthesized compounds were evaluated for their anti-L. (L.) infantum activity on intracellular amastigotes following 96 h treatment, with standard drug miltefosine used as a control. […] Leishmania (L.) infantum (MHOM/BR/1972/LD) amastigotes were obtained by differential centrifugation from golden hamsters (Mesocricetus auratus) spleens with 60–70 days of infection and the number of parasites was determined by the Stauber method.[18] Murine conjunctive fibroblasts NCTC clone 929 (ATCC) were maintained in RPMI-1640 medium supplemented with 10% FBS at pH 7.2 and 37 °C in a humidified incubator with 5% CO2. Peritoneal macrophages were by obtained by washing the peritoneal cavity of BALB/c mice with RPMI-1640 medium supplemented with 10% FBS, pH 7.2 and maintained at 37 °C in a humidified incubator with 5% CO2. NCTC cells (6 × 10^4/well) were added to 96-well plates and maintained at 37 °C in a 5% CO2 humidified incubator for 96 h with compounds serially diluted (1.6 to 200 μM). […] The determination of CC50 and IC50 values was performed by sigmoid dose–response curves using the Graph Pad Prism 5 software. The samples were tested in duplicate and the assays were reproduced at least twice.

T. cruzi trypomastigotes = tested on: T. cruzi trypomastigotes; set-up: method as in our previous work; conditions: ref our previous work; cited from earlier work

| IC50 ([1]; Peritoneal macrophage, 96 h) [µM] | SMILES | CC50 at 96 h [2] [µM] | further results |
| --- | --- | --- | --- |
|  | C=CCc1ccc(Oc2cc(CC=C)cc(OC)c2OCc2ccc(OC)cc2)c(OC)c1 [Compound 1] | > 200 | IC50 (μM) ± SD [1]: inactive; activity against T. cruzi trypomastigotes (T. cruzi trypomastigotes): 4.0 ± 1.4 µM |
|  | C=CCc1ccc(Oc2cc(CC=C)cc(OC)c2OCOC)c(OC)c1 [Compound 2] | > 200 |  |
| 4.1 ± 1.1 | C=CCc1ccc(Oc2cc(CC=C)cc(OC)c2OCCN2CCCC2)c(OC)c1 [Compound 4] | 24.9 ± 2.6 |  |
| 9.6 ± 3.6 | C=CCc1ccc(Oc2cc(CC=C)cc(OC)c2OCCN2CCOCC2)c(OC)c1 [Compound 5] | 63.7 ± 0.2 |  |
| 20.3 ± 5.9 | C=CCc1ccc(Oc2cc(CC=C)cc(OC)c2OCC(=O)N2CCCC2)c(OC)c1 [Compound 6] | 52.9 ± 15.2 |  |
|  | C=CCc1ccc(Oc2cc(CC=C)cc(OC)c2OCC(=O)N2CCOCC2)c(OC)c1 [Compound 7] | 112 ± 8.2 |  |
|  | C=CCc1cc(OC)cc(Oc2ccc(CC=C)cc2OC)c1 [Compound 8] | > 200 |  |
| 24.2 ± 18.2 | C=CCc1cc(OC)c(OCc2ccc(OC)cc2)c(Oc2ccccc2OC)c1 [Compound 9] | > 200 |  |
|  | C=CCc1ccc(Oc2cccc(OC)c2OCc2ccc(OC)cc2)c(OC)c1 [Compound 10] | > 200 |  |
| 32.7 ± 5 | C=CCc1cc(OC)c(OC(C)=O)c(Oc2ccccc2OC)c1 [Compound 11] | > 200 |  |
|  | C=CCc1ccc(Oc2cccc(OC)c2OC(C)=O)c(OC)c1 [Compound 12] | > 200 |  |
|  | C=CCc1cc(OC)c(OC)c(Oc2ccccc2OC)c1 [Compound 13] | > 200 |  |
|  | C=CCc1ccc(Oc2cccc(OC)c2OC)c(OC)c1 [Compound 14] | > 200 |  |
|  | C=CCc1cc(OC)c(O)c(Oc2ccccc2OC)c1 [Compound 15] | 31.6 ± 11.3 |  |
|  | C=CCc1ccc(Oc2cccc(OC)c2O)c(OC)c1 [Compound 16] | > 200 |  |
|  | C=CCc1cc(OC)c(O)c(Oc2ccc(CCC)cc2OC)c1 [Compound 17] | 42 ± 3.8 |  |
|  | C=CCc1ccc(Oc2cc(CCC)cc(OC)c2O)c(OC)c1 [Compound 18] | 14.2 ± 0.1 |  |
|  | C=CCc1cc(OC)c(OC)c(Oc2ccc(CCC)cc2OC)c1 [Compound 19] | > 200 |  |
|  | C=CCc1cc(OC)c(OCc2ccc(OC)cc2)c(Oc2ccc(CCC)cc2OC)c1 [Compound 20] | > 200 |  |
|  | C=CCc1ccc(Oc2cc(CCC)cc(OC)c2OCc2ccc(OC)cc2)c(OC)c1 [Compound 21] | > 200 |  |

| IC50 ([1]; Peritoneal macrophage, 96 h) [µM] | SMILES | CC50 at 96 h [2] [µM] | further results |
| --- | --- | --- | --- |
|  | CCCc1ccc(Oc2cc(CCC)cc(OC)c2OCc2ccc(OC)cc2)c(OC)c1 [Compound 22] | > 200 |  |
|  | C=CCc1cc(OC)c(OCc2ccc(OC)cc2)c(Oc2ccc(CN3CCCC3)cc2OC)c1 [Compound 23] | 6.2 ± 1.2 |  |
| 9.7 ± 2 | C=CCc1cc(OC)c(OCc2ccc(OC)cc2)c(Oc2ccc(CN3CCOCC3)cc2OC)c1 [Compound 24] | > 200 |  |
| 7.7 ± 0.8 | CCCc1cc(OC)c(OCc2ccc(OC)cc2)c(Oc2ccc(CN3CCOCC3)cc2OC)c1 [Compound 25] | 74.4 ± 4.4 |  |
| ~3 | CCCc1cc(OC)c(OCc2ccc(OC)cc2)c(Oc2ccc(CN3CCCCC3)cc2OC)c1 [Compound 26] | 14.5 ± 0.2 | IC50 [1]: 3.7 ± 0.5 µM |
| 27.8 ± 7.4 | COc1ccc(COc2c(OC)cc(CN3CCOCC3)cc2Oc2ccc(CN3CCOCC3)cc2OC)cc1 [Compound 27] | 74.4 ± 5.8 |  |
| 16.4 ± 4.3 | CCCc1ccc(Oc2cc(CN3CCOCC3)cc(OC)c2OCc2ccc(OC)cc2)c(OC)c1 [Compound 28] | > 200 |  |
| 13.2 ± 2.1 | CCCc1ccc(Oc2cc(CN3CCOCC3)cc(OC)c2OCc2ccc(C(F)(F)F)cc2)c(OC)c1 [Compound 29] | > 200 |  |
| 26.3 ± 3.2 | CCCc1ccc(Oc2cc(CN3CCOCC3)cc(OC)c2OCc2cc(OC)c(OC)c(OC)c2)c(OC)c1 [Compound 30] | > 200 |  |
|  | C=CCc1cc(OC)c(O)c(Oc2ccc(CN3CCOCC3)cc2OC)c1 [Compound 31] | 51.4 ± 4.7 | IC50 (μM) ± SD [1]: no anti-parasitic activity |
|  | C=CCc1cc(OC)c(O)c(Oc2ccc(CN3CCCC3)cc2OC)c1 [Compound 32] | 43.3 ± 5.3 | IC50 (μM) ± SD [1]: no anti-parasitic activity |
| ~3 | CCCc1ccc(Oc2cc(CN3CCCCC3)cc(OC)c2OCc2ccc(OC)cc2)cc1 [Compound 33] | 22.7 ± 0.9 |  |
| 15.3 ± 1.9 | CCCc1ccc(Oc2cc(CN3CCOCC3)cc(OC)c2OCc2ccc(OC)cc2)cc1 [Compound 34] | > 200 |  |
|  | CCCc1ccc(OCc2ccc(OC)cc2)c(Oc2ccc(CN3CCOCC3)cc2OC)c1 [Compound 35] | 33.8 ± 4.9 | IC50 (μM) ± SD [1]: inactive |
|  | C=CCc1ccc(Oc2cc(CC=C)cc(OC)c2OCc2ccc(OC)cc2)cc1 [Compound 36] | > 200 |  |
|  | C=CCc1ccc(Oc2cc(CC=C)cc(OC)c2O)cc1 [Compound 37] | 123 ± 9.4 |  |
|  | C=CCc1ccc(Oc2cc(CC=C)ccc2OCc2ccc(OC)cc2)c(OC)c1 [Compound 38] | > 200 |  |
|  | C=CCc1ccc(O)c(Oc2ccc(CC=C)cc2OC)c1 [Compound 39] | 129 ± 5.2 |  |
| 6.5 ± 3 | CCCCCCCCCCCCCCCCOP(=O)([O-])OCC[N+](C)(C)C [Milt., miltefosine, reference compound] | 120 ± 4.2 |  |
